In patent US7141553B2, “A3AR agonists for the treatment of inflammatory arthritis” (Can-Fite Biopharma Ltd. Israel, priority 2002, dated 2006):

Tests used:
[1] = system: adjuvant induced arthritis; test: Adjuvant arthritis model in Lewis rats; format: in vivo, rat
[2] = system: collagen-induced arthritis; test: Collagen-induced-arthritis (CIA) model in mice; format: in vivo, mouse
Experimental: Male DBA mice, aged 10 weeks, were injected SC with 100 μl of Type II collagen 200 μg in complete Freund's adjuvant (CFA). On day 21 a booster injection of the same emulsion was administered. Mice were inspected daily for symptoms of clinical arthritis.
The inflammatory intensity, presented as joint swelling, was measured by Caliper (Mitutoyo Co., Tokyo, Japan). Histopathological sections of these decalcified whole joints were stained with hematoxylin-eosin. Slides were screened for the following arthritic characteristics: inflammatory cell infiltration, synovial cell lining hyperplasia and pannus formation. The histological assessment of the knees inflammation intensity was divided to four parameters: • 1. Lymphatic follicle like formation—graded 0–4 • 2. Inflammatory cells infiltration—graded 0–4 • 3. Synovial cells hyperplasia—graded 0–4 • 4. Pannus formation—graded 0–4 The arithmetic sum of these four parameters above all together designated-“Total Arthritic Score” (Goldenberg et al, J. Rheumatol. 1: 5–11, 1983). The white blood cell (WBC) count and the serum levels of the pro-inflammatory cytokine TMF-α served as humoral markers of the immune system activation. Tumor necrosis factor-α sera level was determined, in accordance with the manufacturer's guidelines, by ELISA kit “Quantikine M” (R&D Systems, Minneapolis, Minn., USA). 4. Statistical Analysis
Male DBA mice were treated to produce collagen-induced-arthritis as described above. Each group contained 10 animals and each experiment was conducted at least three times.
IB-MECA (10 μg/kg) was orally administered by gavage, twice daily starting at onset of clinical arthritis. The […] control received vehicle only. The inflammatory intensity in the CIA model was determined in accordance with the increase in the mice hind paw's diameter, measured by caliper (Mitotoyo, Tokyo, Japan). The mean score in each experimental group was designated as the “Clinical Score”. […]
The assessment of all pathologic findings were performed blind (by L. R-W and M. H) using semi-quantitative grading scales of 0 to 4 for the following parameters: […]

[3] = system: patients with active rheumatoid arthritis; test: Clinical trial in humans, effect on rheumatoid arthritis; format: in vivo, human; settings: 0.1, 1 or 4 mg twice daily orally, up to 12 weeks; in at least half of 15 patients
Source text: Patients with active rheumatoid arthritis were chosen for the study. All chosen patients met the following criteria:
Rheumatoid arthritis patients that were included in the study, met the following inclusion criteria: • 1. Males and females 18 years of age or older • 2. Functional Class I, II, or III by the criteria of the American College of Rheumatology • 3. Active RA, as indicated by the presence of (a) ≧6 swollen joints; AND (b) ≧29 tender joints; AND at least one of he following: (c) Westergren ESR of ≧28 mm/hour; OR (d) CRP level of >2.0 mg/dL; OR (e) morning stiffness for >45 minutes • 4. History of unsuccessful treatment (documented intolerance or lack of efficacy as determined by the Investigator) with at least 1, but no more than 4, of the following disease modifying anti-rheumatic drugs (DMARDs): methotrexate, hydroxychloroquine, sulfasalazine, oral or injectable gold, azathioprine, leflunomide, minocycline, and penicillamine, alone or in combination Protocol
Patients included in the study were subjected to a 1 month washout period in which they ceased to take any DMARD. Following this one months washout the patients were administered twice daily with either with 0.1 mg, 1 mg of 4 mg of IB-MECA in a double-blind fashion. […]
Disease activity was assessed using standard criteria as laid down by the American College of Rheumatology (ACR).

Plasma half life in mice = format: in vivo, mouse
[4] = Human studies, plasma half life (data not shown); format: in vivo

Structure (SMILES): CNC(=O)[C@H]1O[C@@H](n2cnc3c(NCc4cccc(I)c4)ncnc32)[C@H](O)[C@@H]1O [IB-MECA, N6-(3-iodobenzyl)-adenosine-5′-N-methyl-uronamide]
- inflammation as assessed by the inflammation intensity score ([1]; 1 μg/day PO, FIG. 1B): significant reduction
- histological picture of the joint ([1]; 10 μg a day, FIG. 3B, untreated shows destruction of synovial tissue and bone): appeared completely normal
- inflammation as assessed by the inflammation intensity score ([1]; 10 μg/kg PO a day, treatment from day 7 after disease induction, FIG. 1A): effective in abolishing almost completely the inflammation
- appearance of paws ([1]; 10 μg/kg a day PO, untreated rat paws extremely swollen and red): normal appearing paws
- inflammation as assessed by the inflammation intensity score ([1]; 100 μg/kg PO a day, treatment from day 7 after disease induction, FIG. 1A): effective in abolishing almost completely the inflammation
- intensity of the arthritis ([2]; 10 μg/kg orally, day 21 difference significant p<0.02): reduced throughout the experimental period
- histology sections of joints ([2]; 10 μg/kg, FIG. 7C): minimal inflammatory changes
- histology score ([2]; 10 μg/kg, p<0.01 vs control, FIG. 8): 1.0±0.6
- disease symptoms (ACR criteria) [3]: significant improvement in disease symptoms
- half life (Plasma half life in mice): 1.5 h
- half life in human plasma [4]: 8 to 10 h
